The target in test [1] is GSK3α (Homo sapiens, UniProt P49840). Kind of test: GSK3α kinase assay (Caliper LabChip3000 mobility shift, fluoresceinated peptide substrate).
Test [2] has as its target GSK3β (Homo sapiens, UniProt P49841). The experiment in a line: GSK3β kinase assay (Caliper LabChip3000 mobility shift, fluoresceinated peptide substrate). The class given is biochemical.
In test [3] the test system is pTau. The experiment in a line: pTau assay (no method described). The format is cell-based.
Where [4] appears, read: 250 pM enzyme, 20 uM ATP, 1.5 uM peptide, 20 hours room temperature, first value of cell GSK3β/GSK3α, read-out: GSK3β (nM), IC50.

The structures appear in SMILES notation. Like-named read-outs stand apart in the source and are kept apart here.

GSK3α, sequence (P49840 whole entry, species assumed): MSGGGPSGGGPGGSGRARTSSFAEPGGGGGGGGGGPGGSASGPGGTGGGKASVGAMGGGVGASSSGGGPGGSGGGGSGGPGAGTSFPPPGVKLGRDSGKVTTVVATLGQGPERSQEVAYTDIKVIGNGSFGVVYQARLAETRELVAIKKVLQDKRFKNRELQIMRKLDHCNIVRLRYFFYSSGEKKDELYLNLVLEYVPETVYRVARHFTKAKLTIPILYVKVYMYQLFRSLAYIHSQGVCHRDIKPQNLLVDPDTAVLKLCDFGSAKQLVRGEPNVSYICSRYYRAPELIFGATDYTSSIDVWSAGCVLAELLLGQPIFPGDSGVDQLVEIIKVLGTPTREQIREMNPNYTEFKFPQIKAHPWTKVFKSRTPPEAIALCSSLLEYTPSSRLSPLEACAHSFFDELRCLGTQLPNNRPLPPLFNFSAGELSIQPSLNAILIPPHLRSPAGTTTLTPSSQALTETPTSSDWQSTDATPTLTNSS
GSK3β, sequence (P49841 whole entry, species assumed): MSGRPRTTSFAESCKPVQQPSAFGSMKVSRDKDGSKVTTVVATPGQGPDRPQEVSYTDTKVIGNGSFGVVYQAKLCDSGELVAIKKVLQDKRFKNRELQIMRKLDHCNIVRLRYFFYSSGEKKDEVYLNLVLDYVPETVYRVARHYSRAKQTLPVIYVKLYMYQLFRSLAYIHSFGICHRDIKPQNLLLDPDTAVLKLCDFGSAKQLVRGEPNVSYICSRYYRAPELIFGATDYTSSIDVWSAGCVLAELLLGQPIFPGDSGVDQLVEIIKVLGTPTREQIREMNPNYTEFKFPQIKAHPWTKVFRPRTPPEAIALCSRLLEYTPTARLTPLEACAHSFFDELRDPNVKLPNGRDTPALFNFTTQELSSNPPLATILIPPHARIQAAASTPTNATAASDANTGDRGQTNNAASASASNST

For `O=C(Nc1cnc(F)cc1N1CCC(F)(F)CC1)c1ccnc(NC2CCOCC2)n1` [Example 184, N-(4-(4,4-Difluoropiperidin-1-yl)-6-fluoropyridin-3-yl)-2-((tetrahydro-2H-pyran-4-yl)amino)pyrimidine-4-carboxamide], the values for the IC50 in test [1], in test [2] (setting [4]) and in test [3] were 6 nM, 11 nM and 400 nM, respectively.
Turning to `O=C(Nc1cncc(-c2ccccc2F)c1)c1ccnc(Nc2cccc(C(F)(F)F)c2)n1` [Example 185, N-(5-(2-Fluorophenyl)pyridin-3-yl)-2-((3-(trifluoromethyl)phenyl)amino)pyrimidine-4-carboxamide], the results for the IC50 in test [1], in test [2] (setting [4]) and in test [3] were 2.3 nM, 5.9 nM and 530 nM, respectively.
For `O=C(Nc1cncc(-c2ccccc2F)c1)c1ccnc(NCC2CC2)n1` [Example 186, 2-((Cyclopropylmethyl)amino)-N-(5-(2-fluorophenyl)pyridin-3-yl)pyrimidine-4-carboxamide], the half-maximal inhibitory concentration (IC50) (usually the midpoint of a concentration-inhibition curve) in test [1] is 9.9 nM; in test [2] (setting [4]), 6 nM; in test [3], 5000 nM.
In the case of `O=C(Nc1cncc(-c2ccccc2F)c1)c1ccnc(Nc2cccc(OC(F)(F)F)c2)n1` [Example 187, N-(5-(2-Fluorophenyl)pyridin-3-yl)-2-((3-(trifluoromethoxy)phenyl)amino)pyrimidine-4-carboxamide], the IC50 in test [1] was 7.9 nM; in test [2] (setting [4]), 13 nM; in test [3], 2500 nM.
Take `O=C(Nc1cncnc1OCC(F)(F)F)c1ccnc(NCC2CCC2)n1` [Example 188, 2-((Cyclobutylmethyl)amino)-N-(4-(2,2,2-trifluoroethoxy)pyrimidin-5-yl)pyrimidine-4-carboxamide]: the IC50 in test [1] came to 1 nM; in test [2] it was 0.83 nM; in test [3], 180 nM.
With `CC(C)(C)CNc1nccc(C(=O)Nc2cncnc2OCC(F)(F)F)n1` [Example 189, 2-(Neopentylamino)-N-(4-(2,2,2-trifluoroethoxy)pyrimidin-5-yl)pyrimidine-4-carboxamide], the IC50 in test [1] was found to be 0.8 nM; in test [2] (setting [4]), 1.43 nM; in test [3] it was 410 nM.
`O=C(Nc1cncnc1OCC(F)(F)F)c1ccnc(NCC2CCOCC2)n1` [Example 190, 2-(((Tetrahydro-2H-pyran-4-yl)methyl)amino)-N-(4-(2,2,2-trifluoroethoxy)pyrimidin-5-yl)pyrimidine-4-carboxamide]: the 50% inhibitory concentration (IC50) came to 2.6 nM in test [1], 3.1 nM in test [2] and 190 nM in test [3].
For `CC1(CNc2nccc(C(=O)Nc3cncnc3OCC(F)(F)F)n2)COC1` [Example 191, 2-(((3-Methyloxetan-3-yl)methyl)amino)-N-(4-(2,2,2-trifluoroethoxy)pyrimidin-5-yl)pyrimidine-4-carboxamide], the values for the half-inhibitory concentration (IC50) in test [1], in test [2] and in test [3] were 4.3 nM, 3.3 nM and 240 nM, respectively.
On to `O=C(Nc1cncnc1OCC(F)(F)F)c1ccnc(NCC2CC2)n1` [Example 192, 2-((Cyclopropylmethyl)amino)-N-(4-(2,2,2-trifluoroethoxy)pyrimidin-5-yl)pyrimidine-4-carboxamide], for which the IC50 was 4.8 nM in test [1], 4.8 nM in test [2] (setting [4]) and 480 nM in test [3].
Consider `O=C(Nc1cncnc1)c1ccnc(Nc2cccc(-c3ccc(Cl)cc3)c2)n1` [Example 193, 2-((4′-Chloro-[1,1′-biphenyl]-3-yl)amino)-N-(pyrimidin-5-yl)pyrimidine-4-carboxamide], for which the IC50 in test [1] is 1.8 nM; in test [2] (setting [4]), 3.4 nM; in test [3], 620 nM.
With `O=C(Nc1cncnc1)c1ccnc(Nc2cccc(-c3ccccc3)c2)n1` [Example 194, 2-([1,1′-Biphenyl]-3-ylamino)-N-(pyrimidin-5-yl)pyrimidine-4-carboxamide], the concentration for half-maximal inhibition (IC50) in test [1] is 2.9 nM; in test [2] (setting [4]), 4.4 nM; in test [3], 390 nM.
For `Cc1ccccc1-c1cccc(Nc2nccc(C(=O)Nc3cncnc3)n2)c1` [Example 196, 2-((2′-Methyl-[1,1′-biphenyl]-3-yl)amino)-N-(pyrimidin-5-yl)pyrimidine-4-carboxamide], the concentration for half-maximal inhibition (IC50) in test [1] was found to be 3.9 nM; in test [2] (setting [4]), 5.2 nM; in test [3] it was 840 nM.
The corresponding values for `O=C(Nc1cncnc1)c1ccnc(NCC2CC2c2ccc(F)cc2F)n1` (stereo not drawn) [Example 197, 2-(((2-(2,4-Difluorophenyl)cyclopropyl)methyl)amino)-N-(pyrimidin-5-yl)pyrimidine-4-carboxamide] are 21 nM, 24 nM and 5100 nM.
Turning to `O=C(Nc1cncnc1)c1ccnc(NCC2CC2c2ccc(F)cc2)n1` (stereo not drawn) [Example 198, 2-(((2-(4-Fluorophenyl)cyclopropyl)methyl)amino)-N-(pyrimidin-5-yl)pyrimidine-4-carboxamide], the IC50 is 28 nM in test [1], 35 nM in test [2] (setting [4]) and 6500 nM in test [3].
As for `COc1cccc(C2CC2CNc2nccc(C(=O)Nc3cncnc3)n2)c1` (stereo not drawn) [Example 199, 2-(((2-(3-Methoxyphenyl)cyclopropyl)methyl)amino)-N-(pyrimidin-5-yl)pyrimidine-4-carboxamide], the IC50 was determined as 33 nM in test [1], 40 nM in test [2] (setting [4]) and 6100 nM in test [3].
For the compound `O=C(Nc1cncnc1)c1ccnc(NCC2CC2c2cccc(F)c2)n1` (stereo not drawn) [Example 200, 2-(((2-(3-Fluorophenyl)cyclopropyl)methyl)amino)-N-(pyrimidin-5-yl)pyrimidine-4-carboxamide], the IC50 in test [1] stood at 59 nM; in test [2] (setting [4]) it was 53 nM; in test [3] it was 6400 nM.
As to `O=C(Nc1cncnc1)c1ccnc(Nc2ccccc2)n1` [Example 201, 2-(Phenylamino)-N-(pyrimidin-5-yl)pyrimidine-4-carboxamide], the IC50 is 45 nM in test [1], 71 nM in test [2] (setting [4]) and 4200 nM in test [3].
The corresponding values for `O=C(Nc1cncnc1)c1ccnc(N[C@H]2C[C@@H]2c2ccccc2)n1` [Example 202, 2-(((1S,2R)-2-Phenylcyclopropyl)amino)-N-(pyrimidin-5-yl)pyrimidine-4-carboxamide] are 57 nM, 120 nM and 2300 nM.
As for `O=C(Nc1cncnc1N1CCOCC1)c1ccnc(NCC2CCC2)n1` [Example 203, 2-((Cyclobutylmethyl)amino)-N-(4-morpholinopyrimidin-5-yl)pyrimidine-4-carboxamide], the half-maximal inhibitory concentration (IC50) is 6.1 nM in test [1], 8.7 nM in test [2] and 600 nM in test [3].
With `CC(C)(C)CNc1nccc(C(=O)Nc2cncnc2N2CCOCC2)n1` [Example 204], the IC50 in test [1] turned out to be 11 nM; in test [2] (setting [4]) it was 13 nM; in test [3], 1100 nM.
As for `O=C(Nc1cncnc1N1CCOCC1)c1ccnc(NCC2CC2)n1` [Example 205, 2-((Cyclopropylmethyl)amino)-N-(4-morpholinopyrimidin-5-yl)pyrimidine-4-carboxamide], the half-maximal inhibitory concentration (IC50) in test [1] is 22 nM; in test [2] it was 19 nM; in test [3], 1800 nM.
On to `O=C(Nc1cncnc1N1CCOCC1)c1ccnc(NCC2CCOCC2)n1` [Example 206, N-(4-Morpholinopyrimidin-5-yl)-2-(((tetrahydro-2H-pyran-4-yl)methyl)amino)pyrimidine-4-carboxamide], for which the half-maximal inhibitory concentration (IC50) in test [1] was determined as 99 nM; in test [2] (setting [4]) it was 74 nM; in test [3], 4700 nM.

These data come from patent US10752609B2, “GSK-3 inhibitors” (priority 2016, dated 2020).
